# Data as given in patent US20240197890A1, “FLAVONE DERIVATIVES AND USES IN TARGETING CK2-MEDIATED DISEASES AND CONDITIONS” (Salk Institute for Biological Studies, priority 2020, published 2024).
# Legend:
# IL6 expression = IL6 expression in AD patient iPSC-derived astrocytes after IL1-β stimulation (qRT-PCR); format: cell-based, human; conditions: controls and AD astrocytes
# [1] = molecular target: T1, recombinant human CK2a1 kinase (Homo sapiens, UniProt P68400); experiment: In vitro kinase assay (PhosphoSens, Cysteine-Sox sensor peptide); format: biochemical; conditions: FIG. 4A
# T1 construct: purchased Thermo Fisher PV3248
# Protocol: Kinase assays. In vitro kinase assays were run using the Cysteine-Sox-Kinase Sensor AQT0696, 96 assay Kit (AssayQuant Tech, CSKS-AQT0696). […] Slopes corresponding to linear reaction rates were obtained for each compound concentration (RFU/sec), normalized to DMSO controls, and IC50 values were determined by applying the dose response non-linear regression model in GraphPad Prism. For kinase assays using postmortem brain tissue lysates, brain tissues were homogenized at 4° C. using a Bullet Blender (Next Advance) in kinase buffer (20 mM HEPES 7.4 pH, 150 mM NaCl, 1% Triton-X, 1 mM EDTA, 1 mM EGTA plus Halt Protease and Phosphase Inhibitor Cocktail). After sonication and clarification, protein concentration was measured by BCA Assay. CK2 activity was measured as described above, except lysates were used instead of purified kinase at 2 μL/well (˜0.3-0.4 ug protein per reaction). […] Patient lysates were individually preincubated with 20 μM CX4945 for 30 min at room temperature before initiating kinase kinetic assays.
# CK2α1 = molecular target: T2, CK2α1 (Homo sapiens, UniProt P68400); experiment: Thermal shift assay with Western blotting in astrocyte extracts; format: binding; conditions: extracts of iPSC-derived astrocytes
# T2 construct: endogenous in cells
# Protocol: Thermal shift assay and TPP. […] Protein concentration was determined by BCA assay (Bio-Rad), and lysates were diluted to 2 mg/mL. […] Reactions were incubated at rt for 30 min, after which each treated extract was divided into 10 aliquots of 95 μl in PCR strip tubes and stored on ice. […] A small aliquot (5 μl) of supernatant was saved for Western blotting, and the rest was snap frozen at −80 C and submitted for LC-MS/MS.
# HMGB1 = HMGB1 secretion in AD patient iPSC-derived astrocytes (Western blot); format: cell-based, human
# Protocol: Western blotting. For drug treatment assays, cells were treated with vehicle (DMSO) or 20 μM compound and stimulated with IL1-B 10 ng/mL for 1 h, 6 h, or 24 h. Cells were dissociated with 1:1 Accutase:papain for 3 min at rt, pelleted for 5 min at 800 g, and washed twice with cold DPBS. Pellets were lysed with RIPA buffer (Sigma R0278) supplemented with Halt protease inhibitor cocktail (Thermo Fisher 78445) and clarified by centrifugation (16,000 g, 10 min, 4° C.). Protein concentration was determined by BCA assay (Thermo Fisher). Proteins were denatured in 1×LDS Buffer and 2.5% beta-mercaptoethanol (X) for 10 min at 70° C., separated on Bolt 4-12% Bis-Tris Plus polyacrylamide gels (Thermo Fisher), transferred to PVDF membranes using the iBlot 2 Dry Blotting System, and blocked with 0.1% casein-PBS (Bio-Rad) for 1 h at room temperature. The blots were incubated with primary antibodies overnight at 4° C. in PBS containing 0.1% casein and 0.2% Tween-20. […] The blots were imaged using the Odyssey CLx imaging system and blots were analyzed on the ImageStudio software (LI-COR).
# To further investigate this CK2 dysregulation in an in vitro AD model, iPSC-derived astrocytes were generated from a cohort of 6 AD patients and 5 age-matched controls. […] HMGB1 was detected in media from AD astrocytes in the absence of inflammatory stimuli (FIG. 12C). […]
# T2 sequence (P68400 whole entry): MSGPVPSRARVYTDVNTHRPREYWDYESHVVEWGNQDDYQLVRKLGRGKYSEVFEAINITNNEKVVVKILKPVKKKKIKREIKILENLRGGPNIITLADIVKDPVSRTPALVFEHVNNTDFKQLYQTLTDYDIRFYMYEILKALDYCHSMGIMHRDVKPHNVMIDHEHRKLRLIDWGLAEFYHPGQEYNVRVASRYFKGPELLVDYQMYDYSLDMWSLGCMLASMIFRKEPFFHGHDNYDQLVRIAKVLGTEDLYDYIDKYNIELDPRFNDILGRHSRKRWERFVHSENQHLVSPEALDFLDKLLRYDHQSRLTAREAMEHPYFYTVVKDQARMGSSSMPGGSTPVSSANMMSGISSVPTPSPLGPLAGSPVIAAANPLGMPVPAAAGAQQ
# T1 sequence (P68400 whole entry): as above
smiles,measurement,setting,value
"COc1cc(-c2cc(=O)c3c(O)cc(O)cc3o2)ccc1O [CHR, chrysoeriol]",IL6 expression after IL1-β stimulation,IL6 expression,reduced
same,inhibition of CK2a1 in vitro (activity class in words),[1],active
same,binding / thermal stabilization of CK2a,CK2α1,dose-dependently stabilized
same,binding / thermal stabilization of CK2a,CK2α1; listed as chrysoeriol,bind CK2a
same,HMGB1 secretion,HMGB1,reduced
